{
  "source": "ChEMBL document CHEMBL1127782",
  "about": "“Non-peptidic inhibitors of human leukocyte elastase. 1. The design and synthesis of pyridone-containing inhibitors” (J Med Chem, 1994)",
  "data": [
    {"molecular_target": "T1, Neutrophil elastase (Homo sapiens, UniProt P08246)", "T1 sequence (P08246 whole entry)": "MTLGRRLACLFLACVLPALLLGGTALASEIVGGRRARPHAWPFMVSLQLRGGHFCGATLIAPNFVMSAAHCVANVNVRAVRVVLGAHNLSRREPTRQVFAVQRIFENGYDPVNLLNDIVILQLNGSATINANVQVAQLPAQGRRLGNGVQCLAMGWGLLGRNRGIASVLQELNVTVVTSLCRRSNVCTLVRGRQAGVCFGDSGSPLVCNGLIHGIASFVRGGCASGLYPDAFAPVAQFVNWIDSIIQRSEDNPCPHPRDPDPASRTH", "assay": "The compound was tested in vitro for ability to inhibit human leukocyte elastase activity", "units": {"Ki": "µM"}, "values": [
      {"smiles": "CC(C)C(NC(=O)Cn1cc(Cc2ccccc2)cc(NC(=O)OCc2ccccc2)c1=O)C(=O)C(F)(F)F", "note": "(configuration not stated)", "Ki": 0.04},
      {"smiles": "CC(C)C(NC(=O)Cn1cc(Cc2ccccc2)cc(NC(=O)C(=O)O)c1=O)C(=O)C(F)(F)F", "note": "(configuration not stated)", "Ki": 0.048},
      {"smiles": "CC(C)C(NC(=O)Cn1cccc(NC(=O)OCc2ccccc2)c1=O)C(=O)C(F)(F)F", "note": "(configuration not stated)", "Ki": 0.28},
      {"smiles": "CC(C)C(NC(=O)Cn1cc(Cc2ccc(F)cc2)cc(NC(=O)OCc2ccccc2)c1=O)C(=O)C(F)(F)F", "note": "(configuration not stated)", "Ki": 0.071},
      {"smiles": "COC(=O)C(=O)Nc1cccn(CC(=O)NC(C(=O)C(F)(F)F)C(C)C)c1=O", "note": "(configuration not stated)", "Ki": 0.5},
      {"smiles": "CC(C)C(NC(=O)Cn1cccc(NC(=O)CC(=O)O)c1=O)C(=O)C(F)(F)F", "note": "(configuration not stated)", "Ki": 2.6},
      {"smiles": "CCOC(=O)CC(=O)Nc1cccn(CC(=O)NC(C(=O)C(F)(F)F)C(C)C)c1=O", "note": "(configuration not stated)", "Ki": 3.4},
      {"smiles": "CC(C)C(NC(=O)Cn1cc(Cc2cccc(OC(=O)C(C)(C)C)c2)cc(NC(=O)OCc2ccccc2)c1=O)C(=O)C(F)(F)F", "note": "(configuration not stated)", "Ki": 0.012},
      {"smiles": "CC(C)C(NC(=O)Cn1cccc(NC(=O)C(N)=O)c1=O)C(=O)C(F)(F)F", "note": "(configuration not stated)", "Ki": 0.32},
      {"smiles": "CC(C)C(NC(=O)Cn1cc(Cc2ccccc2)cc(NC(=O)C(N)=O)c1=O)C(=O)C(F)(F)F", "note": "(configuration not stated)", "Ki": 0.051},
      {"smiles": "CC(C)C(NC(=O)Cn1cc(Cc2cccc(NC(=O)C(F)(F)F)c2)cc(NC(=O)OCc2ccccc2)c1=O)C(=O)C(F)(F)F", "note": "(configuration not stated)", "Ki": 0.036},
      {"smiles": "COC(=O)C(=O)Nc1cc(Cc2ccccc2)cn(CC(=O)NC(C(=O)C(F)(F)F)C(C)C)c1=O", "note": "(configuration not stated)", "Ki": 0.07},
      {"smiles": "CC(C)C(NC(=O)Cn1cc(Cc2ccc(OC(=O)C(C)(C)C)cc2)cc(NC(=O)OCc2ccccc2)c1=O)C(=O)C(F)(F)F", "note": "(configuration not stated)", "Ki": 0.032},
      {"smiles": "CC(C)C(NC(=O)Cn1cccc(N)c1=O)C(=O)C(F)(F)F", "note": "(configuration not stated)", "Ki": 2.7},
      {"smiles": "CC(C)C(NC(=O)Cn1cccc([N+](=O)[O-])c1=O)C(=O)C(F)(F)F", "note": "(configuration not stated)", "Ki": 15},
      {"smiles": "CC(C)C(NC(=O)Cn1cccc(NC(=O)C(=O)O)c1=O)C(=O)C(F)(F)F", "note": "(configuration not stated)", "Ki": 0.35},
      {"smiles": "COC(=O)c1ccc(Cc2cc(NC(=O)OCc3ccccc3)c(=O)n(CC(=O)NC(C(=O)C(F)(F)F)C(C)C)c2)cc1", "note": "(configuration not stated)", "Ki": 0.088},
      {"smiles": "CC(C)C(NC(=O)Cn1cc(Cc2ccc(C(F)(F)F)cc2)cc(NC(=O)OCc2ccccc2)c1=O)C(=O)C(F)(F)F", "note": "(configuration not stated)", "Ki": 0.047},
      {"smiles": "CC(C)C(NC(=O)Cn1cc(Cc2cccc(O)c2)cc(NC(=O)OCc2ccccc2)c1=O)C(=O)C(F)(F)F", "note": "(configuration not stated)", "Ki": 0.089},
      {"smiles": "CC(C)C(NC(=O)Cn1cc(Cc2ccc(O)cc2)cc(NC(=O)OCc2ccccc2)c1=O)C(=O)C(F)(F)F", "note": "(configuration not stated)", "Ki": 0.034},
      {"smiles": "CC(C)C(NC(=O)Cn1cc(Cc2cccc(F)c2)cc(NC(=O)OCc2ccccc2)c1=O)C(=O)C(F)(F)F", "note": "(configuration not stated)", "Ki": 0.087},
      {"smiles": "CC(=O)Oc1cccc(Cc2cc(NC(=O)OCc3ccccc3)c(=O)n(CC(=O)NC(C(=O)C(F)(F)F)C(C)C)c2)c1", "note": "(configuration not stated)", "Ki": 0.042}
    ]}
  ]
}
